Reference: ChEMBL document CHEMBL3616449, “Synthesis, in vitro and in silico antimalarial activity of 7-chloroquinoline and 4H-chromene conjugates” (Bioorg Med Chem Lett, 2015)

Experiments:
[1] = Cytotoxicity against african green monkey Vero cells after 72 hrs by MTT assay; type: cell-based; conditions: chlorocebus sabaeus
Plasmodium falciparum [2] = test: Antimalarial activity against chloroquine-sensitive Plasmodium falciparum 3D7 incubated for 72 hrs by SYBR Green 1 assay; type: functional, organism-based; conditions: 3D7, 72 h
[3] = Selectivity index, ratio of CC50 for african green monkey Vero cells to IC50 for chloroquine-resistant Plasmodium falciparum K1; type: functional
[4] = Selectivity index, ratio of CC50 for african green monkey Vero cells to IC50 for chloroquine-sensitive Plasmodium falciparum 3D7; type: functional
Plasmodium falciparum [5] = test: Antimalarial activity against chloroquine-resistant Plasmodium falciparum K1 incubated for 72 hrs by SYBR Green 1 assay; type: functional, organism-based; conditions: K1, 72 h

Row | SMILES | CC50 at 72 h [1] [µM] | IC50 (Plasmodium falciparum [2]) [µM] | Ratio CC50/IC50 [3] | Ratio CC50/IC50 [4] | IC50 (Plasmodium falciparum [5]) [µM]
1 | CNC1=C([N+](=O)[O-])C(c2ccc(N3CCN(c4ccnc5cc(Cl)ccc45)CC3)cc2)c2ccccc2O1 (stereo not drawn) | > 200 | 1.11 | >59.2 | >180.2 | 3.38
2 | CNC1=C([N+](=O)[O-])C(c2ccc(N3CCN(c4ccnc5cc(Cl)ccc45)CC3)cc2)c2cc(Cl)ccc2O1 (stereo not drawn) | 74.5 | 1.37 | 24.9 | 54.3 | 2.99
3 | CNC1=C([N+](=O)[O-])C(c2ccc(N3CCN(c4ccnc5cc(Cl)ccc45)CC3)cc2)c2cc(Br)ccc2O1 (stereo not drawn) | 88.6 | 1.88 | 50.6 | 47.1 | 1.75
4 | CNC1=C([N+](=O)[O-])C(c2ccc(N3CCN(c4ccnc5cc(Cl)ccc45)CC3)cc2)c2cc([N+](=O)[O-])ccc2O1 (stereo not drawn) | 31.9 | 0.62 | 17.9 | 51.4 | 1.78
5 | CNC1=C([N+](=O)[O-])C(c2ccc(N3CCN(c4ccnc5cc(Cl)ccc45)CC3)cc2)c2cc(OC)ccc2O1 (stereo not drawn) | 81.9 | 2.48 | 19.3 | 33 | 4.25
6 | CCOc1cccc2c1OC(NC)=C([N+](=O)[O-])C2c1ccc(N2CCN(c3ccnc4cc(Cl)ccc34)CC2)cc1 (stereo not drawn) | 40.4 | 2.93 | 13.6 | 13.7 | 2.95
7 | CNC1=C([N+](=O)[O-])C(c2ccc(N3CCN(c4ccnc5cc(Cl)ccc45)CC3)cc2)c2cccc(OC)c2O1 (stereo not drawn) | 21.8 | 2.47 | 9.1 | 8.8 | 2.4
8 | CNC1=C([N+](=O)[O-])C(c2ccc(N3CCN(c4ccnc5cc(Cl)ccc45)CC3)cc2)c2cc(Cl)cc(Cl)c2O1 (stereo not drawn) | 97.8 | 3.92 | 67.4 | 24.9 | 1.45
9 | CNC1=C([N+](=O)[O-])C(c2ccc(N3CCN(c4ccnc5cc(Cl)ccc45)CC3)cc2)c2cc(Br)cc(Br)c2O1 (stereo not drawn) | > 200 | > 5 | >68.2 |  | 2.93
10 | CNC1=C([N+](=O)[O-])C(c2ccc(N3CCN(c4ccnc5cc(Cl)ccc45)CC3)cc2)c2c(C=O)c(C)cc(Cl)c2O1 (stereo not drawn) | 84 | 2.34 | 96.5 | 35.8 | 0.87
11 | O=[N+]([O-])C1=C(NCc2ccccc2)Oc2ccccc2C1c1ccc(N2CCN(c3ccnc4cc(Cl)ccc34)CC2)cc1 (stereo not drawn) | 66.5 | > 5 | <13.3 | <13.3 | > 5
12 | O=[N+]([O-])C1=C(NCCc2ccccc2)Oc2ccccc2C1c1ccc(N2CCN(c3ccnc4cc(Cl)ccc34)CC2)cc1 (stereo not drawn) | 131 | 3.31 | 75.5 | 39.6 | 1.74
13 | CCCCNC1=C([N+](=O)[O-])C(c2ccc(N3CCN(c4ccnc5cc(Cl)ccc45)CC3)cc2)c2ccccc2O1 (stereo not drawn) | 107 | 3.09 | 29.9 | 34.6 | 3.57
14 | CNC1=C([N+](=O)[O-])C(c2ccc(N3CCCN(c4ccnc5cc(Cl)ccc45)CC3)cc2)c2ccccc2O1 (stereo not drawn) | 91.4 | > 5 |  | <18.3 | > 5
15 | CNC1=C([N+](=O)[O-])C(c2ccc(N3CCCN(c4ccnc5cc(Cl)ccc45)CC3)cc2)c2cc(Cl)ccc2O1 (stereo not drawn) | 77 | 0.29 | 155.2 | 265.4 | 0.496
16 | CNC1=C([N+](=O)[O-])C(c2ccc(N3CCCN(c4ccnc5cc(Cl)ccc45)CC3)cc2)c2cc(Br)ccc2O1 (stereo not drawn) | > 200 | 2.24 | >157.5 | >89.3 | 1.27
17 | Clc1ccc2c(N3CCN(c4ccccc4)CC3)ccnc2c1 | 179 | 2.69 | 71.7 | 66.3 | 2.49
18 | Clc1ccc2c(N3CCCN(c4ccccc4)CC3)ccnc2c1 | 148 | 3.98 | 33.1 | 37.1 | 4.47
